According to patent US7071169B2, “Pyrane derivatives as both ACE-and NEP-inhibitors” (Novartis AG, priority 2001, dated 2006):
Bridges are numbered along the chain shown (N, C = ends). Where no end group is shown, it is not given here.

Columns and labels:
[1] = system: angiotensin I induced pressor response; assay: inhibition of the angiotensin I induced pressor response in normotensive rats; assay type: in vivo, rat; settings: 10 mg/kg p.o., for 4 hours
Procedure: The in vivo test for i.v. administered compounds is performed with male, normotensive rats, which are anesthetized with sodium metofan. A femoral artery and femoral vein are cannulated respectively for direct blood pressure measurement on i.v. administration of angiotensin I and i.v. or p.o. administration of a compound of this invention. After the basal blood pressure is stabilized, pressor responses to 3 challenges of 300 ng/kg angiotensin I i.v., at 15 minute intervals, are obtained. Such pressure responses are usually again obtained at 15, 30, 60 and 90 minutes, and then every hour up to 6 hours after i.v. or p.o. administration of the compound to be tested, and compared with the initial responses. Any observed decrease of said pressor response is an indication of ACE inhibition.

[2] = system: spontaneously hypertensive rat (SHR); assay: antihypertensive activity in conscious spontaneously hypertensive rat (SHR); assay type: in vivo; settings: 11.6 mg/kg p.o.
From the text: The antihypertensive activity can be determined, e.g., in the spontaneously hypertensive rat (SHR) and the desoxy-corticosterone acetate (DOCA)-salt hypertensive rat, e.g., according to Trapani et al., J. Cardiovasc. Pharmacol., Vol. 14, pp. 419–424 (1989).

NEP (EC 3.4.24.11) = molecular target: T1, NEP (EC 3.4.24.11) (Rattus norvegicus, UniProt P07861); assay: in vitro inhibition of NEP (hydrolysis of glutaryl-Ala-Ala-Phe-2-naphthylamide, GAAP assay); assay type: biochemical; settings: rat kidney cortex membranes
T1 construct: rat kidney cortex membranes prepared by method of Maeda et al. (1983); from tissue; host or cells: rat kidney cortex membranes
T1 sequence (P07861 1-750): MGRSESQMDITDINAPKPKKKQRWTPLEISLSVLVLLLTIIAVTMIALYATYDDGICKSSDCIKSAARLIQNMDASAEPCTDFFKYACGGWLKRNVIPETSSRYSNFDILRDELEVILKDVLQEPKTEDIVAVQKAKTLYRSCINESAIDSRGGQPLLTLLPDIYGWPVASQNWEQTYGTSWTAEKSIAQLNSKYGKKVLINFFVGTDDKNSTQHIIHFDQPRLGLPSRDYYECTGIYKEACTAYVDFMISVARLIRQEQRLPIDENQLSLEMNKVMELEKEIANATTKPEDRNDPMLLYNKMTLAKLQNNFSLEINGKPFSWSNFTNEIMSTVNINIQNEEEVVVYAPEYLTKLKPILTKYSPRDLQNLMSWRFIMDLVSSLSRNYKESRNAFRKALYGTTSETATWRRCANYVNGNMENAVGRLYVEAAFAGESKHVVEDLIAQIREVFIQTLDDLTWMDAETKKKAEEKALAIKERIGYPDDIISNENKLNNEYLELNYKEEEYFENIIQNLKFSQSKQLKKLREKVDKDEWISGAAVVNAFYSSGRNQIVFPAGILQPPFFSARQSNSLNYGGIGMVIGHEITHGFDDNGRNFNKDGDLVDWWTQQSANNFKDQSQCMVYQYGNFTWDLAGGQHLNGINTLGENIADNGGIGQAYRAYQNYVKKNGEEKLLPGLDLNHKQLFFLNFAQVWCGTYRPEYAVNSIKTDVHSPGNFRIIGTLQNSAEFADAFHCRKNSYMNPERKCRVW
Procedure: (§1) In vitro testing is most appropriate for the free carboxylic acids of the invention. The test compound is dissolved in dimethyl sulfoxide, ethanol, or 0.25M sodium bicarbonate solution, and the solution is diluted with buffer to the desired concentration.
The in vitro inhibition of NEP (EC 3.4.24.11) can be determined as follows:
NEP 3.4.24.11 activity is determined by the hydrolysis of the substrate glutaryl-Ala-Ala-Phe-2-naphthylamide […] using a modified procedure of Orlowski and Wilk (1981). The incubation mixture (total volume 125 μL) contains 4.2 μL of protein (rat kidney cortex membranes prepared by method of Maeda et al. (1983), 50 mM tris buffer, pH 7.4 at 25°0 C., 500 μM substrate (final concentration), and leucine aminopeptidase M (2.5 μg). The mixture is incubated for 10 minutes at 25° C., and 100 μL of fast garnet (250 μg fast garnet/mL of 10% Tween 20 in 1M sodium acetate pH 4.2) is added. Enzyme activity is measured spectrophotometrically at 540 nm. One unit of NEP 24.11 activity is defined as 1 nmol of 2-naphthylamine released per minute at 25° C. at pH 7.4. IC50 values are determined, i.e., the concentration of test compound required for 50% inhibition of the release of 2-naphthylamine.

ACE = ACE (Homo sapiens, UniProt P12821); assay: in vitro inhibition of ACE (hippuryl-histidyl-leucine hydrolysis); assay type: biochemical; settings: ACE in vitro assay
Procedure: as §1
The buffer for the ACE assay is 300 mM NaCl, 100 mM KH2PO4 (pH 8.3). The reaction is initiated by the addition of 100 μL of hippuryl-histidyl-leucine (2 mg/mL) to tubes containing enzyme and drug in a volume of 150 μL and tubes are incubated for 30 minutes at 37° C. The reaction is terminated by the addition of 0.75 mL 0.6N NaOH. 100 μL of freshly prepared o-phthalaldehyde solution (2 mg/mL in methanol) is added to the tubes, the contents are mixed and allowed to stand at room temperature. After 10 minutes, 100 μL of 6N HCl is added. The tubes are centrifuged and the supernatant optical density is read at 360 nm. The results are plotted against drug concentration to determine the IC50, i.e., the drug concentration which gives half the activity of the control sample containing no drug.

[3] = molecular target: rabbit antibodies that recognize specifically the carboxyl terminal tryptophan of ET-1; assay: RIA: displacement of [125I]ET-1 binding to anti-ET-1 antibodies; settings: mean±SEM, n=3–5
Procedure: Diluted samples ([…]) obtained from the above enzyme assay are incubated at 4° C. overnight with 25 μL each of [^125I]ET-1 (10,000 cpm/tube) and 1:20,000-fold diluted rabbit antibodies that recognize specifically the carboxyl terminal tryptophan of ET-1. Goat anti-rabbit antibodies coupled to magnetic beads (70 μg) are then added to each tube, and the reaction mixture is further incubated for 30 minutes at room temperature. The beads are pelleted using a magnetic rack. The supernatant is decanted, and the radioactivity in the pellet is counted in a gamma counter. Total and non-specific binding are measured in the absence of non-radioactive ET-1 and anti-ET antibodies, respectively.

Chain of ACE (P12821 30-1306, species assumed): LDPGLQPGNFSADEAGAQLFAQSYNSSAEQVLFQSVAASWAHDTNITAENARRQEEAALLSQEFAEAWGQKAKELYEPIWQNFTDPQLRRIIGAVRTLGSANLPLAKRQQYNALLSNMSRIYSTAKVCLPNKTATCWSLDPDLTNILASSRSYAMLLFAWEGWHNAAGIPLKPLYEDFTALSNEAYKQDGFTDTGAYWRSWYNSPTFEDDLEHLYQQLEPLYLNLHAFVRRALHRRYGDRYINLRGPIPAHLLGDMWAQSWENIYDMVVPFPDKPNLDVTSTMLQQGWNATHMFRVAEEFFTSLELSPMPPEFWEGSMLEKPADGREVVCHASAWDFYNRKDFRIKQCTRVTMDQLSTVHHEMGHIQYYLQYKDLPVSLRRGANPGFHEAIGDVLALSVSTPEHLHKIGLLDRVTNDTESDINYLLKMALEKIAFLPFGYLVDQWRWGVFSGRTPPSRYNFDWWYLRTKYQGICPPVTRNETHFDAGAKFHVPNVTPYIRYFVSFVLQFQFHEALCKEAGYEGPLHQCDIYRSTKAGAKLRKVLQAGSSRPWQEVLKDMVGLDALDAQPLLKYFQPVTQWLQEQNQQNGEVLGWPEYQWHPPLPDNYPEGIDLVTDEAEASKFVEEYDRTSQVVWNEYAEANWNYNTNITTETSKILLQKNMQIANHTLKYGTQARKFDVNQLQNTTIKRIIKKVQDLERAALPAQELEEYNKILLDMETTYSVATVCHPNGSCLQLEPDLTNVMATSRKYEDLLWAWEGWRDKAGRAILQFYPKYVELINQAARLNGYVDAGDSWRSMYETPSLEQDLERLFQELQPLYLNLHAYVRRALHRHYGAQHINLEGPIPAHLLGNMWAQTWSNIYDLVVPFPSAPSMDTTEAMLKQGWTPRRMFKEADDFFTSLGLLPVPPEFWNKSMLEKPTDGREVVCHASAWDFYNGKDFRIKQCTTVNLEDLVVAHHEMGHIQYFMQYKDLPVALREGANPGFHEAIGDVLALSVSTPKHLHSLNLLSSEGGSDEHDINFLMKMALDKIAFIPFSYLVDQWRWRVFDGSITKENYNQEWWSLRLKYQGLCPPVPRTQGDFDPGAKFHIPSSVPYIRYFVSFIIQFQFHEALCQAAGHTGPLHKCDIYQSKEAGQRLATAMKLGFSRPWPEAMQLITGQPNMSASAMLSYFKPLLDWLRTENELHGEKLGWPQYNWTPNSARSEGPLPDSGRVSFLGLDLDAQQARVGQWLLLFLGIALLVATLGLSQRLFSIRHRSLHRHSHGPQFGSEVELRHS

With CCOC(=O)[C@H](Cc1ccc(OC)cc1)NC(=O)C(C)(C)NC(=O)[C@@H](SC(C)=O)C1CCOCC1 [Example 1f, N-[2-[(S)-2-acetylthio-2-(4-tetrahydropyranyl)-acetylamino]-2-methylpropionyl]-(L)-4-methoxyphenylalanine ethyl ester] the “inhibition of the angiotensin I induced pressor response” value [1] was 98% and the “reduction of mean arterial pressure” value [2] was “about 16 mm Hg”.
With COc1ccc(C[C@H](NC(=O)C(C)(C)NC(=O)[C@@H](S)C2CCOCC2)C(=O)O)cc1 [Example 2g, N-[2-[(S)-2-mercapto-2-(4-tetrahydropyranyl)-acetylamino]-2-methylpropionyl]-(L)-4-methoxyphenylalanine] the IC50 (NEP (EC 3.4.24.11)) was ~4.8 nM and the IC50 (ACE) was ~5.9 nM.
For “ET-1: non-radioactive ET-1, the peptide formed from big ET-1 by ECE and measured by RIA”, the “IC50 for displacement of [125I]ET-1 binding to the antibodies” value [3] was 21 ± 2 fmol.
“big ET-1: ECE substrate from which ET-1 is formed; added in the ECE-1 assay (CSCSSLMDKECVYFCHLDIIWVNTPEHVVPYGLGSPRS; disulfide 1-15, 3-11; ends not checked; UniProt P05305 53-90, looked up)” was tested, and the “IC50 for displacement of [125I]ET-1 binding to the antibodies” value [3] was 260,000±66,000 fmol.
